According to doi:10.1101/2025.10.13.682155v1 (biorxiv, 2025):

Target: T1, hCNPY4 (FLAG-tagged human Canopy4) (Homo sapiens, UniProt Q8N129)
T1 sequence (Q8N129 22-248): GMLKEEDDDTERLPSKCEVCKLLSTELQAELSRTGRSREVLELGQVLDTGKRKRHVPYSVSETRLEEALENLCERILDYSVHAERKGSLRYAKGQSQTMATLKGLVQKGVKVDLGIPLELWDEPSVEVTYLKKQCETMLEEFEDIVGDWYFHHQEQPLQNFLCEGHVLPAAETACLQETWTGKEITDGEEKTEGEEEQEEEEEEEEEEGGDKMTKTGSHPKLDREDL
Assay: fluorescence polarization, direct titration
Assay type: binding

Kd [nM]	SMILES
80 ± 25	CCCCCCCCCCCCC/C=C/[C@@H](O)[C@H](CO)NC(=O)CCCCCNc1ccc([N+](=O)[O-])c2nonc12 [NBD-ceramide 6:0]
280 ± 120	CCCCCCCCCCCCC/C=C/[C@@H](O)[C@H](COP(=O)([O-])OCC[N+](C)(C)C)NC(=O)CCCCCNc1ccc([N+](=O)[O-])c2nonc12 [NBD-sphingomyelin 6:0]
130 ± 40	CCCCCCCCCCCCC/C=C/[C@@H](O)[C@H](COP(=O)(O)O)NC(=O)CCCCCNc1ccc([N+](=O)[O-])c2nonc12 [NBD-ceramide-1-phosphate 6:0]
